Reference: patent publication US20200061062A1, “INHIBITORS OF HUMAN PHOSPHATIDYLINOSITOL 3-KINASE DELTA” (ICOS Corporation, priority 2000, published 2020)
Where two headings read alike, the source gives them in different places.

Columns and labels:
[1] = target: T1, PI3Kβ (Homo sapiens, UniProt P42338); assay: Biochemical assay of PI3K potency and selectivity using 20 μM ATP, Beta; conditions: 20 μM ATP; for IC50: read-out: Beta IC50; for Beta/Delta Ratio: ratio of IC50 values, > = hypothetical ratio with 100 μM substituted for the missing IC50
T1 construct: His tag (pFastbac HTa vector) (N); FLAG (N); made in house; host or cells: Sf21 insect cells (baculovirus)
T1 sequence (P42338 whole entry): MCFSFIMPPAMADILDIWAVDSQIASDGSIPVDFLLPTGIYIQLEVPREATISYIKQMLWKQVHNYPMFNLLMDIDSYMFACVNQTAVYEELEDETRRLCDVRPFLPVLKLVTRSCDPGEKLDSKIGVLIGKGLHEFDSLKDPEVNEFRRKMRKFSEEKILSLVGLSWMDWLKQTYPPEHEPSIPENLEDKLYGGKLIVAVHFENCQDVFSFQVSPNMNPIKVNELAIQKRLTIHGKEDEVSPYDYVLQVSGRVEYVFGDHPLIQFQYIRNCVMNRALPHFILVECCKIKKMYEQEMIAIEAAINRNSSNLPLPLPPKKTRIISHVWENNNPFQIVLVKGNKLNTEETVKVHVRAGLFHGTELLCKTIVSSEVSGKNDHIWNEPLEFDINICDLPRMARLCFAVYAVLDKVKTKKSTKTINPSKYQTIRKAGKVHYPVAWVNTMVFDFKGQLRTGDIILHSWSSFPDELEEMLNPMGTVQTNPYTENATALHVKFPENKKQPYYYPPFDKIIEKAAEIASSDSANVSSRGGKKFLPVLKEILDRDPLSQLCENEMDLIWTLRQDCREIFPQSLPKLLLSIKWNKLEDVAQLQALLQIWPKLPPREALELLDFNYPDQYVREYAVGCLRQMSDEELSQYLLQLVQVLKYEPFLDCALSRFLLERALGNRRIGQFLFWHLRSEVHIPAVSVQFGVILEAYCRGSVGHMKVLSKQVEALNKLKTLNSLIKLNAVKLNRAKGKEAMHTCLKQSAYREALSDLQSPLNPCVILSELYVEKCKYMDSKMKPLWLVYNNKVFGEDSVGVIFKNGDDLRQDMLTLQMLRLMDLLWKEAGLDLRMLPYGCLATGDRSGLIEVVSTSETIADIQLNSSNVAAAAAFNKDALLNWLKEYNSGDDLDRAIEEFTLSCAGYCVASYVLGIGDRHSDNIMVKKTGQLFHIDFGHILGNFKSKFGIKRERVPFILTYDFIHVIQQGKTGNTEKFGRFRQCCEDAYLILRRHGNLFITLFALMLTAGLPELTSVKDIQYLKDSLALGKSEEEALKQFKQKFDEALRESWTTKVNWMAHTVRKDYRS
T1 sequence (P27986 whole entry partner): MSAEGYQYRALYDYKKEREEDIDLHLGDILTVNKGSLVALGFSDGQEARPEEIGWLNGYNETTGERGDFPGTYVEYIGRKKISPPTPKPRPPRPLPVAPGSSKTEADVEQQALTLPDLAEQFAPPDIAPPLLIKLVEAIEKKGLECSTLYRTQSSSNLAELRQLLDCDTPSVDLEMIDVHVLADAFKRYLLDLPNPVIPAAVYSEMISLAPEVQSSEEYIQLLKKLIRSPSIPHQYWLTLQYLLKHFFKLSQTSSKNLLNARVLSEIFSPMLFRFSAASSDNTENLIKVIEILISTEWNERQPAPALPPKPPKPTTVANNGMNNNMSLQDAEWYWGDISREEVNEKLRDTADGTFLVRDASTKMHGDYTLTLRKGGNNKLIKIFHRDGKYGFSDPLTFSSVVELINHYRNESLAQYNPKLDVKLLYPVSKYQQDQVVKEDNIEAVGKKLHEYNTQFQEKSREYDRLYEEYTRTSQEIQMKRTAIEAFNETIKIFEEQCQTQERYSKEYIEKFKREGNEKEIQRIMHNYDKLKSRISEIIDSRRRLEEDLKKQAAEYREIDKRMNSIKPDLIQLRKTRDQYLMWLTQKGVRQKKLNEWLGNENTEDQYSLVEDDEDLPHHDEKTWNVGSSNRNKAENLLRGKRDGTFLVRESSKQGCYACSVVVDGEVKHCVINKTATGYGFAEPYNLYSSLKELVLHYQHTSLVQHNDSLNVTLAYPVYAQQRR
Method in brief: (§1)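 Lipid-kinase radiometric assay with γ-[32P]ATP (20 μM ATP) on PIP2/PS liposomes in 20 mM HEPES pH 7.4; the 3× substrate mix held […] and 6 μM liposomes.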

[2] = target: T2, PI3Kγ (Homo sapiens, UniProt P48736); assay: Biochemical assay of PI3K potency and selectivity using 20 μM ATP, Gamma
T2 construct: His tag (pFastbac HTb vector) (N); FLAG (N); made in house; host or cells: Sf21 insect cells (baculovirus)
T2 sequence (P48736 whole entry): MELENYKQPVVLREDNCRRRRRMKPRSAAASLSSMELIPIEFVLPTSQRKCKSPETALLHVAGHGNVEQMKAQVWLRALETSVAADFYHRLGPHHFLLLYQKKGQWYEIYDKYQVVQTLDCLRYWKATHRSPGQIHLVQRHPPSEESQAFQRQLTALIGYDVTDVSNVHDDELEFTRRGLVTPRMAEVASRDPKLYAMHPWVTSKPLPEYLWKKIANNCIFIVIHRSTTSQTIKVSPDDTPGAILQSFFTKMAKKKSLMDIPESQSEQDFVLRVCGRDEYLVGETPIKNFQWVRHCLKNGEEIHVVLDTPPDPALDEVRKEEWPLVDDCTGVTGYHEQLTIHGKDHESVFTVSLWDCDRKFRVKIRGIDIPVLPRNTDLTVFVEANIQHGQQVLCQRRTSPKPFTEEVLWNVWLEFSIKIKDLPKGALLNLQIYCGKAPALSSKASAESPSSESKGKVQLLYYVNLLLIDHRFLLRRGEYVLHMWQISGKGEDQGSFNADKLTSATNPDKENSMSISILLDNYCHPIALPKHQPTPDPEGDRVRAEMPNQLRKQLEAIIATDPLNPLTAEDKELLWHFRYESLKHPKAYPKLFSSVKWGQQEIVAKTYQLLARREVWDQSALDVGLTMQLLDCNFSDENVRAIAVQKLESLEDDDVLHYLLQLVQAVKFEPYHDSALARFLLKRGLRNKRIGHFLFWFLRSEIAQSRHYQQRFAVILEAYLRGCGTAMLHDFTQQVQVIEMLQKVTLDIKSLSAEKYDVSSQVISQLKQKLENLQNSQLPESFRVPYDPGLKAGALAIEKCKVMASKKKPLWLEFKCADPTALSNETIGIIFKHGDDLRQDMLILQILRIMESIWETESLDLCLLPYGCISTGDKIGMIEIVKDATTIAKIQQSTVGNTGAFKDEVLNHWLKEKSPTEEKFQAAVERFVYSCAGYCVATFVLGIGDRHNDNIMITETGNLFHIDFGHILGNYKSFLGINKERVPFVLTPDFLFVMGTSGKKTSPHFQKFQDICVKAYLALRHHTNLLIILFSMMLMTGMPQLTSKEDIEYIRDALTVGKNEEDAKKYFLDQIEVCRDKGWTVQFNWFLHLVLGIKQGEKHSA
Excerpt: Recombinant baculoviruses containing the above clones were generated using manufacturer's recommended protocol (Life Technologies). Baculoviruses expressing His-tagged p110α, p110γ, or p110δ catalytic subunit and p85 subunit were coinfected into Sf21 insect cells. To enrich the heterodimeric enzyme complex, an excess amount of baculovirus expressing p85 subunit was infected, and the His-tagged p110 catalytic subunit complexed with p85 was purified on nickel affinity column. […] In an alternate approach, p101 can be cloned into baculovirus, to permit coexpression with its preferred binding partner p110γ. […]

[3] = tested on: Murine splenocytes (Balb/c); assay: B cell proliferation in response to cell surface IgM stimulation; type: cell-based; conditions: Mus musculus, Splenocyte; stimulated B cell proliferation; read-out: Mouse BCR Stim (EC50)
Method in brief: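 Balb/c splenocytes (2×10^5/well, 10% FBS/RPMI) preincubated 30-60 min with inhibitor, then stimulated with goat F(ab′)2 anti-mouse IgM μ-chain at 25 μg/mL final. Cultured 3 days at 37° C., [^3H]-thymidine pulsed for final 4 h; incorporation counted as CPM. Values are EC50 (μM).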

[4] = tested on: T cell proliferation; assay: Stimulated T cell proliferation (Mouse TCE Stim, Table 4); type: cell-based; conditions: read-out: Mouse TCE Stim (EC50)
[5] = target: T3, PI3Kδ (Homo sapiens, UniProt O00329, S253N); assay: Biochemical assay using 200 μM ATP, Delta;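 note: radiometric filter-binding assay: PI3Kδ transfers ³²P from γ-[³²P]ATP onto PIP2/PS liposomes, counted by scintillation, enzyme-only wells as positive control, no-enzyme wells as background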
T3 sequence (O00329 whole entry S253N): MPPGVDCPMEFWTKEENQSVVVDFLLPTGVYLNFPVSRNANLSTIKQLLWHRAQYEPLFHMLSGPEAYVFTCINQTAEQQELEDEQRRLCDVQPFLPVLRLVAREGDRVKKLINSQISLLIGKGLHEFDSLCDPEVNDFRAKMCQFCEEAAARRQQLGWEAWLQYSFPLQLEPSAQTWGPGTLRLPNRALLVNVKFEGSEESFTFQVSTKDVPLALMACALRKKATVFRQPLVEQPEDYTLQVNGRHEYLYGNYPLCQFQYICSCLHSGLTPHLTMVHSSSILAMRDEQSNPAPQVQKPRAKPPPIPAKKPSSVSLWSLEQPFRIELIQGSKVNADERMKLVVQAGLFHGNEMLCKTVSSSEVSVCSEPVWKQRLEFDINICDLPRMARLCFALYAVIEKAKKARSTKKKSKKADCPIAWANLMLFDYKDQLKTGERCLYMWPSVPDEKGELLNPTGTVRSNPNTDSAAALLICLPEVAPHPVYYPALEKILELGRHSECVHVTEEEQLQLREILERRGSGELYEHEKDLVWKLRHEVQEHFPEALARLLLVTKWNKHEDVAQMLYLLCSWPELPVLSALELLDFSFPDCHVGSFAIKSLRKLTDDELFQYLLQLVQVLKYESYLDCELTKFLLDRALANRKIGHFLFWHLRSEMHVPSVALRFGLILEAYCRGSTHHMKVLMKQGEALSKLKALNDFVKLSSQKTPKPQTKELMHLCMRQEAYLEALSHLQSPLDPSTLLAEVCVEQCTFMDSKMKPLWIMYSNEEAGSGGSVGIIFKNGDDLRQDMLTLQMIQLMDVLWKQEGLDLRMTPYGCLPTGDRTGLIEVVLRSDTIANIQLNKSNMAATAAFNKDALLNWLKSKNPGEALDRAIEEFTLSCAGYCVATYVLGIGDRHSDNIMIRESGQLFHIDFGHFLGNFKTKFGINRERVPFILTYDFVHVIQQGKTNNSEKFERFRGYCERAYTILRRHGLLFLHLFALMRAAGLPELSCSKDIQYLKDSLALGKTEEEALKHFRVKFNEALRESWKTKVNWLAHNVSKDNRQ
T3 sequence (P27986 whole entry partner): as the sequence (P27986 whole entry partner) above
Experimental: (§2) PI3Kδ catalyzes a phosphotransfer from γ-[^32P]ATP to PIP2/PS liposomes at the D3′ position of the PIP2 lipid inositol ring. This reaction is MgCl2 dependent and is quenched in high molarity potassium phosphate buffer pH 8.0 containing 30 mM EDTA. […] The reaction products (and all unlabelled products) are transferred to a 96-well, prewetted PVDF filter plate, filtered, and washed in high molarity potassium phosphate. Scintillant is added to the dried wells and the incorporated radioactivity is quantitated.
(§3) This dilution established a final concentration of 200 μM ATP in the reaction volume. The reaction was stopped with 150 μL quench buffer (1.0 M potassium phosphate pH 8.0, 30 mM EDTA). A portion of the quenched solution (180 μL) was then transferred to a PVDF filter plate (Millipore # MAIP NOB prewetted with sequential 200 μL washes of 100% methanol, water, and finally 1.0 M potassium phosphate pH 8.0 wash buffer).
(§4) The PVDF filter plate was aspirated under moderate vacuum (2-5 mm Hg), washed with 5×200 μL of wash buffer, and then dried by aspiration. The filter was subsequently blotted, allowed to air dry completely, and inserted into a Wallac counting cassette with 50 μL of Ecoscint scintillation cocktail added per well.
(§5) Subsequent selectivity assays were done similarly using the same 3× substrate stocks except they contained 0.05 mCi/mL γ[^32P]ATP and 3 mM PIP2. Subsequent selectivity assays also used the same 3× enzyme stocks, except they now contained 3 nM of any given PI3K isoform.
(§6) For all selectivity assays, the test compounds were weighed out and dissolved into 10-50 mM stocks in 100% DMSO (depending on their respective solubilities) and stored at −20° C. […] From these dilutions, 20 μL was added into the assay wells alongside water blanks used for the enzyme (positive) control and the no enzyme (background) control.
(§7) This selectivity protocol is identical to that described above, except the 3× stock ATP concentration was 600 μM.

[6] = target: T3, PI3Kδ; assay: Biochemical assay of PI3K potency and selectivity using 20 μM ATP, Delta; set-up: His tag (pFastbac HTb vector) (N); FLAG; made in house; host or cells: Sf21 insect cells (baculovirus); conditions: 20 μM ATP; read-out: Delta IC50
Method in brief: as §1

[7] = target: T2, PI3Kγ; assay: Biochemical assay using 200 μM ATP, Gamma
Experimental: as §2, §3, §4, §5, §6, §7

[8] = tested on: human neutrophils; assay: Elastase exocytosis from neutrophils (fMLP-induced); type: cell-based; conditions: neutrophil (PMN) elastase release
Method in brief: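 Human blood neutrophils (Ficoll-Hypaque) treated with compound or DMSO, then stimulated 90 min at 37 °C with 1 μM fMLP plus 0.01 mg/mL cytochalasin B, 1.0 μM NaN3 and 5 μg/mL L-methionine. Supernatant elastase read at 410 nm over 2 h on MeO-suc-AAPV-pNA, normalized to uninhibited; EC50 in μM.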

[9] = tested on: human neutrophils; assay: fMLP-induced human neutrophil migration; type: cell-based; conditions: neutrophil (PMN) migration, read-out: Human PMN Migration (EC50)
Experimental: Neutrophils have the intrinsic capacity to migrate through tissues, and are one of the first cell types to arrive at the sites of inflammation or tissue injury. The effect of D-000 on neutrophil migration towards a concentration gradient of fMLP was measured. The day before the migration assays were performed, 6-well plates were coated with recombinant ICAM-1/Fc fusion protein (Van der Vieren et al., Immunity, 3:683-690 (1995)) (25 μg/mL in bicarbonate buffer, pH 9.3) and left overnight at 4° C. After washing, 1% agarose solution, in RPMI-1640 with 0.5% bovine serum albumin (BSA), was added to wells with or without an inhibitor, and plates were placed into a refrigerator before punching holes in the gelled agarose to create plaques (1 central hole surrounded by 6 peripheral ones per well).
Human neutrophils were obtained as described above, and resuspended in RPMI medium supplemented with 0.5% BSA at 5×10^6 cells/mL. After combining equal volumes of neutrophil suspension and medium (either with DMSO or a serial dilution of the test compound in DMSO), neutrophils were aliquoted into the peripheral holes, while the central hole received fMLP (5 μM). Plates were incubated at 37° C. in the presence of 5% CO2 for 4 hr, followed by termination of migration by the addition of 1% glutaraldehyde solution in D-PBS. After removing the agarose layer, wells were washed with distilled water and dried.
Analysis of neutrophil migration was conducted on a Nikon DIAPHOT® inverted microscope (1× objective) video workstation using the NIH 1.61 program. Using Microsoft Excel and Table Curve 4 (SSPS Inc., Chicago Ill.) programs, a migration index was obtained for each of the studied conditions. Migration index was defined as the area under a curve representing number of migrated neutrophils versus the net distance of migration per cell.
Using the methods described in Examples 3-5, above, compounds of the invention were tested for inhibitory activity and potency in assays of stimulated B and T cell proliferation, neutrophil (PMN) migration, and neutrophil (PMN) elastase release. In Table 4, the values shown are effective concentrations of the compound (EC50; μM). Where no value is given, no assay was performed.

[10] = tested on: basophils; assay: Basophil histamine release assay; type: cell-based, human
Experimental: Assessment of the effect of a compound of the invention on basophil function was tested using a conventional histamine release assay, generally in accordance with the method described in Miura et al., J Immunol, 162:4198-206 (1999). Briefly, enriched basophils were preincubated with test compounds at several concentrations from 0.1 nM to 1,000 nM, for 10 min at 37° C. Then, polyclonal goat antihuman IgE (0.1 μg/mL) or fMLP was added, and allowed to incubate for an additional 30 min. Histamine released into the supernatant was measured using an automated fluorometric technique. Two compounds were tested, shown below.

[11] = target: T4, PI3Kα (Homo sapiens, UniProt P42336); assay: Biochemical assay of PI3K potency and selectivity using 20 μM ATP, Alpha; conditions: for Alpha/Delta Ratio: ratio of IC50 values, > = hypothetical ratio with 100 μM substituted for the missing IC50; for remaining activity at 100 µM: read-out: percent activity remaining at 100 μM, 20 μM ATP, 100 μM compound did not inhibit by at least 50%
T4 construct: His tag (pFastbac HTb vector) (N); FLAG; made in house; host or cells: Sf21 insect cells (baculovirus)
T4 sequence (P42336 whole entry): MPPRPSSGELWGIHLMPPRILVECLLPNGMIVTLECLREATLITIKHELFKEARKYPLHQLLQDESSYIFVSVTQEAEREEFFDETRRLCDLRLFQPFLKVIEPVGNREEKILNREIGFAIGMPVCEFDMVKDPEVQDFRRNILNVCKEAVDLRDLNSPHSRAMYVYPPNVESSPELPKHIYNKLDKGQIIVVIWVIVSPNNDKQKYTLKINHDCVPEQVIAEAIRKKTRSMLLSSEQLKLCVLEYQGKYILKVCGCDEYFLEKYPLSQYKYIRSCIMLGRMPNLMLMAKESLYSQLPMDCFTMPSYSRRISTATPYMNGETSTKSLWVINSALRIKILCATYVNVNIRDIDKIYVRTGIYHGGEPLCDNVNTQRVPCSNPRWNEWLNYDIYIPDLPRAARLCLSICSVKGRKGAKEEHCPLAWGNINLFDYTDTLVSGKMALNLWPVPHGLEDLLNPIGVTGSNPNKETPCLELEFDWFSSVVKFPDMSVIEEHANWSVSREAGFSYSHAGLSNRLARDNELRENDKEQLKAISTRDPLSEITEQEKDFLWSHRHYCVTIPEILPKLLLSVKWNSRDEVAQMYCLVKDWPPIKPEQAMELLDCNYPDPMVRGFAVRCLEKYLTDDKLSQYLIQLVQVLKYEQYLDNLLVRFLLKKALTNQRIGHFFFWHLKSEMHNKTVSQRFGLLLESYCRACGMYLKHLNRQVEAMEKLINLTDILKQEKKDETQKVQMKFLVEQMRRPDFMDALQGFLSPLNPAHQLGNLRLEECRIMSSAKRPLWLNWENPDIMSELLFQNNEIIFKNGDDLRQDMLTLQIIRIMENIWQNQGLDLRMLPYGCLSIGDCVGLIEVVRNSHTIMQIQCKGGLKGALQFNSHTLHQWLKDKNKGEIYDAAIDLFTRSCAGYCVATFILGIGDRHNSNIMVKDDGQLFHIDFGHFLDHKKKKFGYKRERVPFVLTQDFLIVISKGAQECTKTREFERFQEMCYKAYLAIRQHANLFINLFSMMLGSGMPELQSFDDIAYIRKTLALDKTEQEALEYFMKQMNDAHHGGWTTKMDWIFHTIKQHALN
T4 sequence (P27986 whole entry partner): as the sequence (P27986 whole entry partner) above
Method in brief: as §1

[12] = target: T4, PI3Kα; assay: Biochemical assay using 200 μM ATP, Alpha
Experimental: as §2, §3, §4, §5, §6, §7

[13] = target: T1, PI3Kβ; assay: Biochemical assay using 200 μM ATP, Beta
[14] = stimulated T cell proliferation

O=c1c2ccc(F)cc2nc(CSc2ncnc3[nH]cnc23)n1-c1ccccc1Cl [Compound D-022, 3-(2-Chlorophenyl)-7-fluoro-2-(9H-purin-6-ylsulfanylmethyl)-3H-quinazolin-4-one]
IC50 [1]: 110 µM
IC50 [2]: 40 µM
EC50 [3]: 1.8 µM
EC50 [4, 14]: 2.3 µM
melting point: 151.4 to 154.2 °C
IC50 [5]: 4.2 µM
IC50 [6]: 0.8 µM

Cc1cccc2nc(CSc3ncnc4[nH]cnc34)n(-c3ccccc3Cl)c(=O)c12 [Compound D-026, 3-(2-Chlorophenyl)-5-methyl-2-(9H-purin-6-ylsulfanylmethyl)-3H-quinazolin-4-one]
IC50 [2]: 1.7 µM
IC50 [7]: 13 ± 10 µM
EC50 [8]: 0.2 ± 0.2 µM
EC50 [9]: 0.3 ± 0.3 µM
EC50 [3]: 0.3 ± 0.1 µM
EC50 ([4]; T-cell): 3.5 µM
EC50 ([10]; Homo sapiens, read-out: EC50, suppression of histamine release): ~0.025 µM
Suppression of histamine release ([10]; anti-IgE, at 1,000 nM): ~100%
Effect on histamine release, basophils stimulated with fMLP ([10]; fMLP stimulus): Neither compound elicited any effect
melting point: 227.8 to 230.1 °C (dec.)
IC50 [5]: 0.38 ± 0.2 µM
IC50 [6]: 0.08 µM

Cc1cccc2nc(Cn3cnc4c(N)ncnc43)n(-c3ccccc3C(C)C)c(=O)c12 [Compound D-029, 2-(6-Aminopurin-9-ylmethyl)-3-(2-isopropylphenyl)-5-methyl-3H-quinazolin-4-one]
Alpha/Delta Ratio ([11]; 20 μM ATP): 882
IC50 ([11]; 20 μM ATP, read-out: Alpha IC50): 49 µM
Beta/Delta Ratio [1]: 54
IC50 [1]: 3 µM
Alpha/Delta Ratio [12]: 653
Beta/Delta Ratio [13]: 101
IC50 [13]: 34 ± 4 µM
Gamma/Delta Ratio [7]: 37
IC50 [7]: 13 ± 0.7 µM
EC50 [8]: 0.5 ± 0.6 µM
EC50 [9]: 0.3 µM
EC50 [3]: 0.1 ± 0.03 µM
EC50 [4, 14]: 3.4 ± 2 µM
melting point: 258 to 258.2 °C
IC50 [5]: 0.34 ± 0.08 µM
IC50 [6]: 0.06 µM

COc1ccccc1-n1c(CSc2ncnc3[nH]cnc23)nc2ccccc2c1=O [Compound D-036, 3-(2-methoxyphenyl)-2-(9H-purin-6-ylsulfanylmethyl)-3H-quinazolin-4-one]
Alpha/Delta Ratio ([11]; 20 μM ATP): >226
remaining activity at 100 µM [11]: 63%
Beta/Delta Ratio [1]: 69
Alpha/Delta Ratio [12]: 48
Beta/Delta Ratio [13]: 36
Gamma/Delta Ratio [7]: 18
IC50 [7]: 72 µM
EC50 [8]: 5.5 ± 5 µM
EC50 [9]: 0.2 µM
EC50 [3]: 0.9 ± 0.04 µM
EC50 [4, 14]: 4.1 µM
IC50 [5]: 4.1 µM

O=c1c2ccccc2nc(CSc2ncnc3[nH]cnc23)n1Cc1ccccc1 [Compound D-037, 3-benzyl-2-(9H-purin-6-ylsulfanylmethyl)-3H-quinazolin-4-one]
Alpha/Delta Ratio ([11]; 20 μM ATP): >125
remaining activity at 100 µM [11]: 64%
Beta/Delta Ratio [1]: 100
IC50 [1]: 80 µM
Alpha/Delta Ratio [12]: 64
Beta/Delta Ratio [13]: 33
Gamma/Delta Ratio [7]: 13
IC50 [7]: 45 µM
EC50 [8]: 1.3 ± 0.4 µM
EC50 [9]: 2 µM
EC50 [3]: 1.2 ± 0.4 µM
IC50 [5]: 3.5 µM
IC50 [6]: 0.8 µM

CCCCn1c(CSc2ncnc3[nH]cnc23)nc2ccccc2c1=O [Compound D-038, 3-butyl-2-(9H-purin-6-ylsulfanylmethyl)-3H-quinazolin-4-one]
Alpha/Delta Ratio ([11]; 20 μM ATP): >167
remaining activity at 100 µM [11]: 77%
Beta/Delta Ratio [1]: >170
remaining activity at 100 µM ([1]; read-out: Beta: percent activity remaining at 100 μM, 100 μM compound did not inhibit by at least 50%): 63%
IC50 [2]: 60 µM
Gamma/Delta Ratio ([2]; ratio of IC50 values): 100
Alpha/Delta Ratio [12]: 77
Beta/Delta Ratio [13]: 82
Gamma/Delta Ratio [7]: 31
IC50 [7]: 55 µM
EC50 [8]: 5 µM
EC50 [3]: 1.4 ± 0.1 µM
EC50 [4, 14]: 2.9 µM
IC50 [5]: 1.8 µM
IC50 [6]: 0.6 µM
